Assay results from the NIST ThermoML archive (doi:10.1016/j.jct.2017.05.006).
± gives the expanded uncertainty stated by the source.

Experiment: osmotic coefficient (dimensionless); mn = molality of the nth substance listed, in mol/kg
Conditions: 298.15 K, Liquid, isopiestic method

O=S(=O)([O-])[O-].[Mg+2] [magnesium sulfate] + O
osmotic coefficient (m1 = 1.562): 0.586 ± 0.016 | osmotic coefficient (m1 = 1.585): 0.593 ± 0.016 | osmotic coefficient (m1 = 1.607): 0.595 ± 0.016 | osmotic coefficient (m1 = 1.643): 0.601 ± 0.015 | osmotic coefficient (m1 = 1.7): 0.609 ± 0.015 | osmotic coefficient (m1 = 1.742): 0.617 ± 0.015 | osmotic coefficient (m1 = 1.803): 0.625 ± 0.015 | osmotic coefficient (m1 = 1.884): 0.641 ± 0.014 | osmotic coefficient (m1 = 2.007): 0.665 ± 0.013 | osmotic coefficient (m1 = 2.132): 0.692 ± 0.012 | osmotic coefficient (m1 = 2.243): 0.714 ± 0.011 | osmotic coefficient (m1 = 2.385): 0.746 ± 0.01

O=[N+]([O-])[O-].O=[N+]([O-])[O-].[Mg+2] [magnesium nitrate] + O
osmotic coefficient (m1 = 0.7578): 1.015 ± 0.005 | osmotic coefficient (m1 = 0.855): 1.032 ± 0.0058 | osmotic coefficient (m1 = 0.9755): 1.071 ± 0.009 | osmotic coefficient (m1 = 1.067): 1.103 ± 0.0066 | osmotic coefficient (m1 = 1.126): 1.115 ± 0.0072 | osmotic coefficient (m1 = 1.15): 1.122 ± 0.0076 | osmotic coefficient (m1 = 1.187): 1.13 ± 0.013 | osmotic coefficient (m1 = 1.191): 1.135 ± 0.0096 | osmotic coefficient (m1 = 1.234): 1.143 ± 0.008 | osmotic coefficient (m1 = 1.309): 1.172 ± 0.011 | osmotic coefficient (m1 = 1.395): 1.196 ± 0.0091
